From patent publication US20100130549A1, “PSYCHOTROPIC COMPOUNDS, COMPOSITIONS AND METHODS OF USE” (priority 2007, published 2010)

What was measured:
[1] = system: BALB/c mice; assay: Open field test
[2] = system: BALB/c mice; assay: Rotor rod test (motor activity); type: in vivo; details: 10 mg/kg p.o., 90 min after administration; vs controls
Description: The test was performed 90 min after oral administration of the compounds. […] The rotor rod test involves placing the mouse on an elevated rotating bar. In this test, the mouse is placed on the bar such that it is facing the direction opposite to the rotation of the rod. The time lag to fall is determined.

[3] = system: ICR male mice; assay: Subchronic ip administration (toxicity); type: in vivo
Source text: […]. Except for this local irritation no other toxicity was noted.
[…]. […] Except of these local irritations no other toxicity was noted.

[4] = system: BALBc male mice; assay: Hot plate test; type: in vivo; details: 10 mg/kg orally (sertraline equimolar); vs vehicle treated control
Source text: The hot-plate test is widely used to measure pain sensation. The latency in response to heat of mice and rats feet is based on the method described by Eddy et al., Synthetic analgesics. II. […] The method is based on placing an animal on heated (52-56 C) surface and measuring the time to response (raising paw, licking of the paw, jumping or running.
The animals were followed for 6 hr.

[5] = 10 and 30 mg/kg ip ×3/week for 2 weeks, sertraline equimolar
[6] = 10 mg/kg (equimolar) ip 1 hr prior, p<0.001 vs controls

Row | Structure (SMILES) | sedative effect accompanying the anxiolytic activity ([1]; orally 90 min prior) | muscle strength and basic motor activity [2] | body weight gain versus controls [3, 5] | chemistry blood picture [3, 5] | histopathology of heart, spleen, liver and kidney ([3]; high dose of 30 mg/kg ip, subchronic, capsule of the abdominal organs) | latency to heat sensation [4] | total time spent in the center (areas 2+3) ([1]; 10 mg/kg (equimolar) ip 1 hr prior) | frequency to the center ([1]; 10 mg/kg (equimolar) ip 1 hr prior, controls 1.23) | distance moved [1, 6] | velocity [1, 6]
1 | OCCCC#Cc1cc2c(cc1OC[C@@H]1CNCC[C@H]1c1ccc(F)cc1)OCO2 [If] | not accompanied by a sedative effect |  |  |  |  |  |  |  |  | 
2 | CN[C@H]1CC[C@@H](c2ccc(Cl)c(Cl)c2)c2ccccc21 [sertraline, reference compound] |  | did not modify | no difference | did not show a significant change | minimal to mild irritation | significantly increase | significantly increase | 1.27 | significantly increase | significantly increase
